# Legend:
# S. epidermidis = assay: Anti-biofilm functions of N-halamine-containing samples (recovered bacteria, SEM); assay type: cell-based; details: polyurethane samples containing 4% additive, three days of immersion in S. epidermidis
# Description: Preparation of N-halamine-containing materials. In one example, a predetermined amount of Cl-ODDMH (e.g., 1%, 2% and 4% to PU) was added into 5% polyurethane (Noveon) solutions in THF under constant stirring to from a clear solution. The solution was cast onto Teflon sheets in a fume hood at room temperature for 2 days to produce thin films (e.g., 170±10 μm of thickness). The films were further dried under vacuum at 50° C. for 3 days. Cl-ODDMH-containing PU sheets (e.g., 4×4 cm) or discs (e.g., 0.5 cm of diameter) were cut sterilely from the films. Pure PU sheets or discs were prepared under the same conditions as controls.
# Anti-biofilm functions. The samples were immersed individually in sealed tubes containing 5 mL of S. epidermidis broth suspension (10^6-10^7 CFU/mL of bacteria) in a shaking water bath at 37° C. and 30 RPM. […] The solution was serially diluted, and 100 μL of each dilution was plated onto agar plates. The same procedure was applied to the untreated samples as controls. Bacterial colonies were counted after incubation at 37° C. for between about 24 and 48 hours. SEM studies were used to confirm the biofilm controlling function. PU discs with or without the presence of Cl-ODDMH were immersed in 5 mL 10^6-10^7 CFU/mL of S. epidermidis broth suspensions in a water bath at 37° C. and 30 RPM. […]
# [1] = DSC and TGA thermal analysis of Cl-BTMP; assay type: physicochemical
# [2] = Storage stability, active chlorine content by iodimetric titration; assay type: physicochemical; details: PS and HDPE films, storage for 4 months at 23±2° C. and 70±5% RH
# Description: After storage for about 4 months under ambient conditions (e.g., 23±2° C., 70±5% RH), all the samples retained more than 96% of their original chlorine contents. The antimicrobial functions were tested monthly during the storage period, and after 4 months of storage, the minimum contact time of the samples for a total kill of 10^8-10^9 CFU/mL of E. coli or S. aureus was unchanged.
# E. coli = assay: Antimicrobial activity of CADMH-containing PS or HDPE films (sandwich test); assay type: cell-based
# Description: Preparation of CADMH-containing polymeric materials. PS and HDPE were used as the model polymers to preliminarily evaluate the antimicrobial activities of CADMH as additives. In the preparation of CADMH-containing PS films, a certain amount of CADMH was dissolved in 5% PS solutions in THF. The solution was poured onto glass slides. The glass slides were put in a fume hood for 2 days at room temperature to evaporate most of the solvent, and then further dried in a vacuum oven at 30° C. for 3 days to obtain polymer films (100±10 μm of thickness). To prepare CADMH-containing HDPE films, a predetermined amount of CADMH was added into 5% HDPE solutions in hot o-xylene under constant stirring. After evaporation of the solvent, polymer films having a thickness of about 70±5 μm were obtained by hot pressing at 140° C. for 15 seconds. The chlorine contents of the CADMH-containing PS and HDPE films were determined by iodimetric titration, as described above. Pure PS or HDPE films without the presence of CADMH were prepared using the same procedures as controls.
# Antimicrobial activity of CADMH-containing polymers. In the antimicrobial tests of CADMH-containing PS or HDPE films, 10 μL of E. coli suspensions (e.g., 10^8-10^9 CFU/mL) were placed onto the surface of a film (e.g., 4×4 cm). The film was then covered with another identical film. A 100 grams weight was added onto the whole “sandwich” to ensure sufficient contact. At different contact time, the “sandwich” was transferred into 10 mL of 0.03 wt % sodium thiosulfate aqueous solution to quench the active chlorine of the samples. The mixture was sonicated for 20 minutes and vortexed for 60 seconds to remove the adherent bacteria into the solution. The resultant solution was serially diluted, and each dilution was placed onto LB agar plates. The same procedure was also applied to the pure PS or HDPE films as controls. Bacterial colonies were counted after 24 hours of incubation at 37° C.
# [3] = Thermal properties by DSC; assay type: physicochemical
# Description: Thermal properties of the samples were examined with DSC, and the representative DSC curves are shown in FIG. 6 using DCSDMH and Cl-DCSDMH as examples. […] After chlorination, the N—H bond in DCSDMH is transformed into N—Cl group, and because of the lack of hydrogen bonding, the melting point of Cl-DCSDMH decreases to 52.4° C.
# [4] = test system: Staphylococcus aureus subsp. aureus (S. aureus, ATCC 6538, gram-positive); assay: Antimicrobial activity of CADMH in aqueous suspension; assay type: cell-based; details: for contact time for a total kill of 10^8-10^9 CFU/mL of S. aureus: 500 ppm of active chlorine content
# Description: (§1) In other examples to evaluate antimicrobial activities of CADMH, Escherichia coli (e.g., E. coli, ATCC® 15597™, gram-negative) and Staphylococcus aureus subsp. aureus (e.g., S. aureus, ATCC® 6538™, gram-positive) were used as model microorganisms to challenge the antimicrobial functions of the samples. In the microbial studies, the bacteria were grown in broth solutions (e.g., LB broth for E. coli; Tryptic Soy broth for S. aureus) overnight at 37° C. Cells were harvested in a centrifuge, washed twice with phosphate buffered saline (e.g., PBS, OmniPur®, NaCl, 8.0 g/L; KCl, 0.20 g/L; Na2HPO4, 1.42 g/L; KH2PO4, 1.36 g/L; pH 7.4), re-suspended in PBS, and then diluted to concentrations of 10^8-9 CFU/mL. A known amount of CADMH (particle size: 60-80 mesh) was dispersed in 10 mL of sterilized distilled water. The mixture was vortexed and then sonicated for 10 minutes. Then, 100 μL of the bacteria suspension were added into the CADMH-containing suspension and the resultant mixture was vortexed for 60 seconds. After a certain period of contact time under constant shaking, the mixture was poured into 90 mL of 0.03 wt % sterilized sodium thiosulfate aqueous solution to quench the active chlorine and stop the antimicrobial test. […] The resulting solutions were vortexed for 2 minutes and then serially diluted, and each dilution was placed onto LB agar (for E. coli) or Tryptic soy agar (for S. aureus). The same procedure was also applied to the correspondent unchlorinated samples as controls. Bacterial colonies on the plates were counted after incubation at 37° C. for 24 hours.
# [5] = test system: Escherichia coli (E. coli, ATCC 15597, gram-negative); assay: as above; assay type: cell-based; details: for contact time for a total kill of 10^8-10^9 CFU/mL of E. coli: 500 ppm of active chlorine content; for % of kill of E. coli / log reduction of E. coli: 1000 ppm of active chlorine content
# Description: as §1
# Solubility in water = assay type: physicochemical
# [6] = 1000 ppm of active chlorine content, 5 minutes of contact
# [7] = 1000 ppm active chlorine content
smiles,measurement,setting,value
CCCCCCCCCCCCCCCCCCN1C(=O)N(Cl)C(C)(C)C1=O [Cl-ODDMH],bacteria recovered from the samples,S. epidermidis,less than 50 CFU/cm^2
"CC1(C)CC(OC(=O)CCCCCCCCC(=O)OC2CC(C)(C)N(Cl)C(C)(C)C2)CC(C)(C)N1Cl [Cl-BTMP, bis(N-chloro-2,2,6,6-tetramethyl-4-piperidinyl) sebacate]",thermally stable up to,[1],up to 200 °C
CCCCCCCCCCCCCCCCCCCCCCN1C(=O)N(Cl)C(C)(C)C1=O [Cl-DCSDMH],active chlorine contents of the films after storage,[2],no changes
same,contact time for a total kill of 10^8-10^9 CFU/mL of E. coli,E. coli; 1% additive in HDPE films,4 hours
same,contact time for a total kill of 10^8-10^9 CFU/mL of E. coli,E. coli; 1% additive in PS films,4 hours
same,antimicrobial activities of the films after storage,"E. coli; PS and HDPE films, storage for 4 months at 23±2° C. and 70±5% RH",no changes
same,exothermic peak in the DSC curve (decomposition of the N—Cl bond),[3],176.0 °C
same,contact time for a total kill of 10^8-10^9 CFU/mL of S. aureus,[4],60 minutes
same,contact time for a total kill of 10^8-10^9 CFU/mL of E. coli,[5],60 minutes
same,solubility in water (in words),Solubility in water,insoluble
CCCCCCN1C(=O)N(Cl)C(C)(C)C1=O [Cl-HDMH],contact time for a total kill of 10^8-10^9 CFU/mL of S. aureus,[4],30 minutes
same,% of kill of S. aureus,[4]; [6],100%
same,log reduction of S. aureus,[4]; [6],7 log
same,log reduction of S. aureus,"[4]; 1000 ppm of active chlorine content, contact time 15 minutes",8 log
same,contact time for a total kill of 10^8-10^9 CFU/mL of E. coli,[5],30 minutes
same,% of kill of E. coli,[5]; 5 minutes of contact,99%
same,log reduction of E. coli,[5]; 5 minutes of contact,2 log
same,% of kill of E. coli,[5]; contact time 15 minutes,99.999%
same,log reduction of E. coli,[5]; contact time 15 minutes,5 log
same,solubility in water (in words),Solubility in water,insoluble
CCN1C(=O)N(Cl)C(C)(C)C1=O [Cl-EDMH],contact time for a total kill of 10^8-10^9 CFU/mL of S. aureus,[4],less than 5 minutes
same,contact time for total kill of S. aureus,[4]; [7],less than 5 minutes
same,contact time for a total kill of 10^8-10^9 CFU/mL of E. coli,[5],less than 5 minutes
same,contact time for total kill of E. coli,[5]; [7],less than 5 minutes
same,solubility in water,Solubility in water; 23° C.,ca. 3 g/L
